Measured values as given in patent publication US11479604B2, “Immunomodulatory peptides and methods for modulating the immune system in a subject” (Recepta Biopharma S.A., priority 2017, dated 2022).

Legend:
[1] = system: T lymphocytes of lungs, spleen and lymph nodes; assay: Flow cytometry of Treg, T-CD4+ and T-CD8+ cells after prophylactic DC protocol; assay type: in vivo, mice
Experimental: On day 14, mice were inoculated i.v. with B16F10.Nex2 melanoma tumor cells and on day 29, lungs, spleen and cervical and axillary lymph nodes were examined for CD3+ cells, and the proportion of T-CD4+ and T-CD8+ cells.
The lungs were incubated with 2 mg/ml of collagenase for 40 min at 37° C. before maceration. The cell suspension was incubated with cold hemolytic buffer for 1 min and then centrifuged. The pellet was suspended with RPMI medium and counted. 1×10^6 Cells of each group were processed and stained using the Treg Detection Kit (Miltenyi Biotec, Cambridge, USA). Lymphocytes were characterized using anti-CD4 (FITC), anti-CD25 (PE) and anti-Foxp3 (APC). Samples were analyzed by flow cytometry using FACSCantoII (Becton Dickinson, San Jose, Calif., USA). Acquired data were analyzed using the FlowJo V10 (TreeStar Inc., Ashland, Oreg., USA). The percentages of Foxp3^+ in CD4^+CD25^+ lymphocytes are indicated.
The cell suspension was incubated with cold hemolytic buffer for 1 min and then centrifuged. The pellet was suspended with RPMI medium and counted. 1×10^6 Cells of each group were stained with anti-CD3 (PE) and anti-CD4 (FITC) or anti-CD3 (PE) and anti-CD8 (FITC). All antibodies used were purchase from Miltenyi Biotec, Cambridge, USA. Samples were analyzed by flow cytometry using FACSCantoII (Becton Dickinson, San Jose, Calif., USA). Acquired data were analyzed using the FlowJo V10 (TreeStar Inc., Ashland, Oreg., USA). The percentages of CD4^+ or CD8^+ in CD3^+ lymphocytes are indicated.

[2] = system: bone marrow derived dendritic cells; assay: CD74 receptor expression in myeloid dendritic cells; assay type: cell-based, mouse; details: murine dendritic cells
Experimental: After incubation the cells were stimulated with or without LPS (Sigma-Aldrich, Missouri, USA), at 200 ng/ml or tumor lysate (B16F10-Next cells) in the proportion of 30 DCs to 1 tumor cell, for 24 h. After incubation, the cells were harvested and stained with anti-CD74 (BV786) from BD Bioscience. Stained cells were acquired using LSRFortessa™ (Becton Dickinson, San Jose, Calif., USA) and data analysis was performed using the FlowJo V10 (TreeStar Inc., Ashland, Oreg., USA). The results are represented as percentage of CD74^+ cells in CD11b^+CD11c^+ or CD11c^+MHCII^+ population.
Protein lysates were separated by electrophoresis, and immunoblotting analyses were performed for: total AKT, total p44/42 MAPK (ERK1/2), total IKKα, total IkBα, total NF-kB p65, phospho-AKT (Ser473), phospho-ERK1/2 (Thr202/Tyr204), phospho-IKKα/β (Ser176/180), phospho-IkBα (Ser32) and phospho-NFkB p65 (Ser536). GAPDH was assayed for loading control. HRP-conjugated secondary antibodies were used, followed by incubation with the ECL substrate (Millipore, Billerica, Mass.). All primary and secondary antibodies were purchased from Cell Signaling Technologies (Beverly, Mass., USA). Anti-CD74 receptor was also assayed (Abcam, Cambridge, UK). Phosphorylation ratios were quantified using ImageJ software. Results are represented in arbitrary units normalized to untreated control lanes.

[3] = prophylactic protocol with peptide-stimulated DCs

## [CARGETARATFAYWGQGC], NH2 (C-C) [Rb9]
[1]; [3]
  T-CD4+ and T-CD8+ effector cells: increased T-CD4+ and T-CD8+ effector cells
  Tregs (FoxP3+): reduced Tregs
[1]; spleen and lymph nodes (except lungs), day 29, DCs stimulated by peptide
  proportion of T-CD8+ to T-CD4+ cells: T-CD8+ cells greatly predominated over T-CD4+ effector cells
[2]
  expression of CD74 in CD11b+CD11c+ and CD11c+MHC-II+ cells: increased expression
